Laboratory results: patent US20220040212A1, “ORAL REHYDRATION COMPOSITION WITH OLIGOSACCHARIDES” (ABBOTT LABORATORIES, priority 2013, published 2022)
Several values for one entry are separate records, joined by “and”; a condition that tells them apart may be missing. Equal entries are not always repeated.

Legend:
[1] = Stability of oligosaccharides in oral rehydration solution, before/after retort sterilization and 3 weeks after (HPAEC); format: physicochemical; conditions: for LNnT / Lactose / % Theoretical LNnT: LNnT sample, pH 3.5; for % Theoretical LNnT: fortification 0.256 g/L
Experimental: A study was conducted to determine the relative stabilities of GOS, FOS, 2′-FL, 6′-SL, and LNnT in an oral rehydration solution. A master batch of product was prepared (shown in Table 1), the pH adjusted to approx. 4.25, and subsequently divided into five sub-batches.
Oligosaccharide ingredients were added to each of the sub-batches in amounts shown Table 2, and the pH of each sub-batch was subsequently adjusted to 3.5 with citric acid. The solutions were filled into 1 L plastic bottles, capped and retorted with a cook temperature of 217° F. for 25 minutes. Duplicate samples were collected immediately prior to sterilization and within 24 h after sterilization. Prior to sample analysis, the unsterile samples were stored at refrigerated temperature (˜40° F.) and the sterilized samples were held ambient temperature.
Samples were analyzed by HPAEC using a Dionex ICS3000 Ion Chromatography System (Thermo Scientific, Inc., Sunnyvale, Calif.) equipped with a pulsed amperometric detector comprised of a AgCl reference electrode, gold working electrode, and CarboPac PA1 guard (4×50 mm) and analytical columns (4×250 mm). Mobile phases were degassed and pressurized with 3 to 5 psi helium, and oligosaccharides eluted from the columns using various gradients detailed in Tables 3-5 at a flow rate of 1.0 mL/min. The column and detector were held at 20±2° C. Oligosaccharide identification and concentration were determined from quadratic fit (not forced through the origin) standard curves. […]
2′-FL fortification was calculated to be 0.2 g/L. Testing samples were reconstituted at 20 mL to 100 ml, with water, and then filtered using a 0.2 μm PES membrane syringe filter.
LNnT fortification was calculated to be 0.256 g/L. Testing samples were reconstituted at 20 mL to 100 ml, with water, and then filtered using a 0.2 μm PES membrane syringe filter.
6′-SL fortification was calculated to be 0.2 g/L. Testing samples were reconstituted at 20 mL to 100 mL with water, and then filtered using a 0.2 μm PES membrane syringe filter.

[2] = Stability of 2′-FL, LNnT and 6′-SL in an ORC over time (0 D to 14 weeks); format: physicochemical; conditions: for LNnT / Lactose / % Remaining * (LNnT) / % Remaining ** (LNnT): LNnT ORC pH 3.5; for % Remaining * (LNnT): vs target fortification
Experimental: Another study was performed to determine the stability of 2′-FL, LNnT, and 6′-SL in an ORC over time (e.g., 1 week, 3 weeks, 6 weeks, and 14 weeks).
Sample Preparation: A master batch with a pH of 4.25 is sub-divided. The oligosaccharides are added to the respective ORC in an amount of 0.2 g/L for 2′-FL and 6′-SL, LNnT was fortified in an amount of 0.256 g/L. The pH was then adjusted from 4.25 to 3.5 by addition of citric acid. Prior to sterilization, samples are collected to evaluate oligosaccharide levels. The formulas were then delivered into 1 L bottles and subjected to heat sterilization and allowed to cool to room temperature.
The data on day 0 was collected in duplicate for samples prior to sterilization (unsterile) and after sterilization (sterile), thereafter the data was collected only on the sterilized samples. […] The slight fluctuation in lactose and lactulose levels are likely due to method variability.
The data on day 0 was collected in duplicate for samples prior to sterilization (unsterile) and after sterilization (sterile), thereafter the data was collected only on the sterilized samples.
The data on day 0 was collected in duplicate for samples prior to sterilization (unsterile) and after sterilization (sterile), thereafter the data was collected only on the sterilized samples. […] At 14 weeks, the concentration was 2.3% of the target fortification amount.

[3] = 3-week after sterilization, average
[4] = 3-week after sterilization, samples 1, 2
[5] = sterile (after retort 217° F. 25 min), samples 1, 2
[6] = sterile (after retort), average

CC(=O)N[C@H]1[C@H](O[C@H]2[C@@H](O)[C@@H](CO)O[C@@H](O[C@H]3[C@H](O)[C@@H](O)C(O)O[C@@H]3CO)[C@@H]2O)O[C@H](CO)[C@@H](O[C@@H]2O[C@H](CO)[C@H](O)[C@H](O)[C@H]2O)[C@@H]1O (mixture of isomers) [LNnT, lacto-N-neotetraose]
Stability in the exemplary formulations (in words) [1]: enhanced stability
LNnT [1, 3]: 269 mg/L
Lactose [1, 3]: 28.1 mg/L
% Theoretical LNnT [1, 3]: 105%
LNnT [1, 4]: 266.5 mg/L and 271.0 mg/L
Lactose [1, 4]: 28.03 mg/L and 28.19 mg/L
% Theoretical LNnT [1, 4]: 104.2% and 106%
LNnT [1, 5]: 261 mg/L and 261.1 mg/L
Lactose [1, 5]: 26.34 mg/L and 27.26 mg/L
LNnT [1, 6]: 261 mg/L
Lactose [1, 6]: 26.8 mg/L
% Theoretical LNnT [1, 6]: 102%
% Theoretical LNnT ([1]; sterile (after retort), samples 1, 2): 102.1%
LNnT ([1]; unsterile, average): 258 mg/L
Lactose ([1]; unsterile, average): 25.6 mg/L
% Theoretical LNnT ([1]; unsterile, average): 101%
LNnT ([1]; unsterile, samples 1, 2): 257.6 mg/L and 259.4 mg/L
Lactose ([1]; unsterile, samples 1, 2): 25.78 mg/L and 25.46 mg/L
% Theoretical LNnT ([1]; unsterile, samples 1, 2): 100.7% and 101.4%
Further loss 3-weeks after sterilization, relative to sterilized sample (in words) ([1]; oral rehydration solution pH 3.5, 3-weeks after sterilization): no further loss
Loss of oligosaccharide during sterilization (in words) ([1]; oral rehydration solution pH 3.5, retort 217° F. 25 min): no decrease
LNnT ([2]; 0 D, sterile, average): 261 mg/L
Lactose ([2]; 0 D, sterile, average): 26.8 mg/L
% Remaining * (LNnT) ([2]; 0 D, sterile, average): 102%
LNnT ([2]; 0 D, sterile, samples 1, 2): 261 mg/L and 261.1 mg/L
Lactose ([2]; 0 D, sterile, samples 1, 2): 26.34 mg/L and 27.26 mg/L
% Remaining * (LNnT) ([2]; 0 D, sterile, samples 1, 2): 102.1%
LNnT ([2]; 0 D, unsterile, average): 258 mg/L
Lactose ([2]; 0 D, unsterile, average): 25.6 mg/L
% Remaining * (LNnT) ([2]; 0 D, unsterile, average): 101%
LNnT ([2]; 0 D, unsterile, samples 1, 2): 257.6 mg/L and 259.4 mg/L
Lactose ([2]; 0 D, unsterile, samples 1, 2): 25.78 mg/L and 25.46 mg/L
% Remaining * (LNnT) ([2]; 0 D, unsterile, samples 1, 2): 100.7% and 101.4%
% Remaining ** (LNnT) ([2]; 3 WK, sterile, average): 105%
LNnT ([2]; 3 WK, sterile, average): 269 mg/L
Lactose ([2]; 3 WK, sterile, average): 28.10 mg/L
% Remaining ** (LNnT) ([2]; 3 WK, sterile, samples 1, 2): 104.2% and 106%
LNnT ([2]; 3 WK, sterile, samples 1, 2): 266.5 mg/L and 271.0 mg/L
Lactose ([2]; 3 WK, sterile, samples 1, 2): 28.03 mg/L and 28.19 mg/L
% Remaining ** (LNnT) ([2]; 6 WK, sterile, average): 104%
LNnT ([2]; 6 WK, sterile, average): 267 mg/L
Lactose ([2]; 6 WK, sterile, average): 29.7 mg/L
% Remaining ** (LNnT) ([2]; 6 WK, sterile, samples 1, 2): 103.9% and 104.9%
LNnT ([2]; 6 WK, sterile, samples 1, 2): 265.8 mg/L and 268.4 mg/L
Lactose ([2]; 6 WK, sterile, samples 1, 2): 30.89 mg/L and 28.6 mg/L
% Remaining ** (LNnT) ([2]; 14 WK, sterile, average): 105%
LNnT ([2]; 14 WK, sterile, average): 269 mg/L
Lactose ([2]; 14 WK, sterile, average): 28 mg/L
% Remaining ** (LNnT) ([2]; 14 WK, sterile, samples 1, 2): 106.6% and 103.4%
LNnT ([2]; 14 WK, sterile, samples 1, 2): 272.7 mg/L and 264.3 mg/L
Lactose ([2]; 14 WK, sterile, samples 1, 2): 27.94 mg/L and 28.14 mg/L
Change of oligosaccharide level over the course of the study (in words) ([2]; ORC pH 3.5, heat sterilized, 0 D to 14 weeks): No substantial loss
